The values that follow come from BindingDB's records for doi:10.1021/jm960274q (Basf, 1996).

This assay deals with Endothelin receptor type B (Cavia porcellus). As to the kind of experiment: Binding affinity towards Endothelin B receptor by measuring its ability to displace [125I]ET-3 from guinea pig cerebellum.

pKi: −log10 of the molar value.

Usually pKi stands for the negative decadic logarithm of the Ki, by convention in mol/L. A lower pKi goes with a high Ki.

On to `CCOc1cc(OCC)nc(OC(C(=O)O)C(OC)(c2ccccc2)c2ccccc2)n1` (centres undefined) [2-(4,6-Diethoxy-pyrimidin-2-yloxy)-3-methoxy-3,3-diphenyl-propionic acid], for which the pKi is 5.60.

`COc1cc(OC)nc(OC(C(=O)O)C(OC)(c2ccccc2F)c2ccccc2F)n1` (centres undefined) [2-(4,6-Dimethoxy-pyrimidin-2-yloxy)-3,3-bis-(2-fluoro-phenyl)-3-methoxy-propionic acid] had a pKi of 5.22.

In the case of `COc1cc(OC)nc(OC(C(=O)O)C(OC)(c2cccc(F)c2)c2cccc(F)c2)n1` (centres undefined) [2-(4,6-Dimethoxy-pyrimidin-2-yloxy)-3,3-bis-(3-fluoro-phenyl)-3-methoxy-propionic acid], the pKi was 5.74.

Turning to `COc1cc(OC)nc(OC(C(=O)O)C(O)(c2ccccc2)c2ccccc2)n1` (centres undefined) [2-(4,6-Dimethoxy-pyrimidin-2-yloxy)-3-hydroxy-3,3-diphenyl-propionic acid], the pKi was 5.46.

The molecule `COc1cc(OC)nc(OC(C(=O)O)C(OC)(c2cccc(C)c2)c2cccc(C)c2)n1` (centres undefined) [2-(4,6-Dimethoxy-pyrimidin-2-yloxy)-3-methoxy-3,3-di-m-tolyl-propionic acid] had a pKi of 5.89.

For the molecule `COc1cc(OC)nc(OC(C(=O)O)C(OC)(c2ccc(C)cc2)c2ccc(C)cc2)n1` (centres undefined) [2-(4,6-Dimethoxy-pyrimidin-2-yloxy)-3-methoxy-3,3-di-p-tolyl-propionic acid], the pKi is 6.00.

Molecule `COc1cc(OC)nc(OC(C(=O)O)C(Oc2ccccc2)(c2ccccc2)c2ccccc2)n1` (centres undefined) [2-(4,6-Dimethoxy-pyrimidin-2-yloxy)-3-phenoxy-3,3-diphenyl-propionic acid] showed a pKi of 5.82.

`CCc1cc(C)nc(OC(C(=O)O)C(OC)(c2ccccc2)c2ccccc2)n1` (centres undefined) [2-(4-Ethyl-6-methyl-pyrimidin-2-yloxy)-3-methoxy-3,3-diphenyl-propionic acid] showed a pKi of 6.80.

For the molecule `COc1cc(OC)nc(OC(C(=O)O)C(OC)(c2ccc(Cl)cc2)c2ccc(Cl)cc2)n1` (centres undefined) [3,3-Bis-(4-chloro-phenyl)-2-(4,6-dimethoxy-pyrimidin-2-yloxy)-3-methoxy-propionic acid], the pKi was 5.89.
